From US9993478B2, “1-pyrazolyl-3-(4-((2-anilinopyrimidin-4-yl) oxy) napththalen-1-yl) ureas as P38 MAP knase inhibitors” (Respivert Ltd., priority 2011, dated 2018)

System: d-U937 cells
Experiment: Cell viability: MTT assay
Format: cell-based, human
Conditions: 1 μg/mL
Protocol: Differentiated U937 cells were pre-incubated with each test compound (final concentration 1 μg/mL or 10 μg/mL in 200 μL media indicated below) under two protocols: the first for 4 hr in 5% FCS RPMI1640 media and the second in 10% FCS RPMI1640 media for 24 h. The supernatant was replaced with new media (200 μL) and MTT stock solution (10 μL, 5 mg/mL) was added to each well. After incubation for 1 hr the media were removed, DMSO (200 μL) was added to each well and the plates were shaken lightly for 1 hr prior to reading the absorbance at 550 nm. The percentage loss of cell viability was calculated for each well relative to vehicle (0.5% DMSO) treatment. Consequently an apparent increase in cell viability for drug treatment relative to vehicle is tabulated as a negative percentage.

SMILES | MTT Assay Cell viability at time point in d-U937 Cells 4 h | MTT Assay Cell viability at time point in d-U937 Cells 24 h
Cc1ccc(-n2nc(C(C)(C)C)cc2NC(=O)Nc2ccc(Oc3ccnc(Nc4cccc(Cl)c4)n3)c3ccccc23)cc1 [Example 13, 1-(3-(tert-butyl)-1-(p-tolyl)-1H-pyrazol-5-yl)-3-(4-((2-((3-chlorophenyl)amino)pyrimidin-4-yl)oxy)naphthalen-1-yl)urea] | −ve (−ve and +ve indicate the value is below and above respectively, the no significant effect threshold defined as 30% inhibition at 1 μg/mL at the time point indicated) | −ve (−ve and +ve indicate the value is below and above respectively, the no significant effect threshold defined as 30% inhibition at 1 μg/mL at the time point indicated)
COc1cccc(Nc2nccc(Oc3ccc(NC(=O)Nc4cc(C(C)(C)C)nn4-c4ccc(C)cc4)c4ccccc34)n2)c1 [Example 14, 1-(3-(tert-butyl)-1-(p-tolyl)-1H-pyrazol-5-yl)-3-(4-((2-((3-methoxyphenyl)amino)pyrimidin-4-yl)oxy)naphthalen-1-yl)urea] | −ve (−ve and +ve indicate the value is below and above respectively, the no significant effect threshold defined as 30% inhibition at 1 μg/mL at the time point indicated) | −ve (−ve and +ve indicate the value is below and above respectively, the no significant effect threshold defined as 30% inhibition at 1 μg/mL at the time point indicated)
Cc1ccc(-n2nc(C(C)(C)C)cc2NC(=O)Nc2ccc(Oc3ccnc(Nc4cccc(F)c4)n3)c3ccccc23)cc1 [Example 15, 1-(3-(tert-butyl)-1-(p-tolyl)-1H-pyrazol-5-yl)-3-(4-((2-((3-fluorophenyl)amino)pyrimidin-4-yl)oxy)naphthalen-1-yl)urea] | −ve (−ve and +ve indicate the value is below and above respectively, the no significant effect threshold defined as 30% inhibition at 1 μg/mL at the time point indicated) | −ve (−ve and +ve indicate the value is below and above respectively, the no significant effect threshold defined as 30% inhibition at 1 μg/mL at the time point indicated)
Cc1ccc(-n2nc(C(C)(C)C)cc2NC(=O)Nc2ccc(Oc3ccnc(Nc4ccc(Cl)cc4)n3)c3ccccc23)cc1 [Example 16, 1-(3-(tert-butyl)-1-(p-tolyl)-1H-pyrazol-5-yl)-3-(4-((2-((4-chlorophenyl)amino)pyrimidin-4-yl)oxy)naphthalen-1-yl)urea] | −ve (−ve and +ve indicate the value is below and above respectively, the no significant effect threshold defined as 30% inhibition at 1 μg/mL at the time point indicated) | −ve (−ve and +ve indicate the value is below and above respectively, the no significant effect threshold defined as 30% inhibition at 1 μg/mL at the time point indicated)
COc1ccc(Nc2nccc(Oc3ccc(NC(=O)Nc4cc(C(C)(C)C)nn4-c4ccc(C)cc4)c4ccccc34)n2)cc1 [Example 17, 1-(3-(tert-butyl)-1-(p-tolyl)-1H-pyrazol-5-yl)-3-(4-((2-((4-methoxyphenyl)amino)pyrimidin-4-yl)oxy)naphthalen-1-yl)urea] | −ve (−ve and +ve indicate the value is below and above respectively, the no significant effect threshold defined as 30% inhibition at 1 μg/mL at the time point indicated) | −ve (−ve and +ve indicate the value is below and above respectively, the no significant effect threshold defined as 30% inhibition at 1 μg/mL at the time point indicated)
Cc1ccc(-n2nc(C(C)(C)C)cc2NC(=O)Nc2ccc(Oc3ccnc(Nc4ccc(Cl)cc4C)n3)c3ccccc23)cc1 [Example 18, 1-(3-(tert-butyl)-1-(p-tolyl)-1H-pyrazol-5-yl)-3-(4-((2-((4-chloro-2-methylphenyl)amino)pyrimidin-4-yl)oxy)naphthalen-1-yl)urea] | −ve (−ve and +ve indicate the value is below and above respectively, the no significant effect threshold defined as 30% inhibition at 1 μg/mL at the time point indicated) | −ve (−ve and +ve indicate the value is below and above respectively, the no significant effect threshold defined as 30% inhibition at 1 μg/mL at the time point indicated)
Cc1ccc(-n2nc(C(C)(C)C)cc2NC(=O)Nc2ccc(Oc3ccnc(Nc4ccccc4Cl)n3)c3ccccc23)cc1 [Example 19, 1-(3-(tert-butyl)-1-(p-tolyl)-1H-pyrazol-5-yl)-3-(4-((2-((2-chlorophenyl)amino)pyrimidin-4-yl)oxy)naphthalen-1-yl)urea] | −ve (−ve and +ve indicate the value is below and above respectively, the no significant effect threshold defined as 30% inhibition at 1 μg/mL at the time point indicated) | −ve (−ve and +ve indicate the value is below and above respectively, the no significant effect threshold defined as 30% inhibition at 1 μg/mL at the time point indicated)
Cc1ccc(-n2nc(C(C)(C)C)cc2NC(=O)Nc2ccc(Oc3ccnc(Nc4ccccc4C(C)C)n3)c3ccccc23)cc1 [Example 20, 1-(3-(tert-butyl)-1-(p-tolyl)-1H-pyrazol-5-yl)-3-(4-((2-((2-isopropylphenyl)amino)pyrimidin-4-yl)oxy)naphthalen-1-yl)urea] | −ve (−ve and +ve indicate the value is below and above respectively, the no significant effect threshold defined as 30% inhibition at 1 μg/mL at the time point indicated) | −ve (−ve and +ve indicate the value is below and above respectively, the no significant effect threshold defined as 30% inhibition at 1 μg/mL at the time point indicated)
Cc1ccc(-n2nc(C(C)(C)C)cc2NC(=O)Nc2ccc(Oc3ccnc(Nc4ccccc4C)n3)c3ccccc23)cc1 [Example 21, 1-(3-(tert-butyl)-1-(p-tolyl)-1H-pyrazol-5-yl)-3-(4-((2-(o-tolylamino)pyrimidin-4-yl)oxy)naphthalen-1-yl)urea] | −ve (−ve and +ve indicate the value is below and above respectively, the no significant effect threshold defined as 30% inhibition at 1 μg/mL at the time point indicated) | −ve (−ve and +ve indicate the value is below and above respectively, the no significant effect threshold defined as 30% inhibition at 1 μg/mL at the time point indicated)
CCOc1ccc(Nc2nccc(Oc3ccc(NC(=O)Nc4cc(C(C)(C)C)nn4-c4ccc(C)cc4)c4ccccc34)n2)cc1 [Example 22, 1-(3-(tert-butyl)-1-(p-tolyl)-1H-pyrazol-5-yl)-3-(4-((2-((4-ethoxyphenyl)amino)pyrimidin-4-yl)oxy)naphthalen-1-yl)urea] | −ve (−ve and +ve indicate the value is below and above respectively, the no significant effect threshold defined as 30% inhibition at 1 μg/mL at the time point indicated) | −ve (−ve and +ve indicate the value is below and above respectively, the no significant effect threshold defined as 30% inhibition at 1 μg/mL at the time point indicated)
Cc1ccc(-n2nc(C(C)(C)C)cc2NC(=O)Nc2ccc(Oc3ccnc(Nc4ccc(F)cc4)n3)c3ccccc23)cc1 [Example 23, 1-(3-(tert-butyl)-1-(p-tolyl)-1H-pyrazol-5-yl)-3-(4-((2-((4-fluorophenyl)amino)pyrimidin-4-yl)oxy)naphthalen-1-yl)urea] | −ve (−ve and +ve indicate the value is below and above respectively, the no significant effect threshold defined as 30% inhibition at 1 μg/mL at the time point indicated) | −ve (−ve and +ve indicate the value is below and above respectively, the no significant effect threshold defined as 30% inhibition at 1 μg/mL at the time point indicated)
Cc1ccc(-n2nc(C(C)(C)C)cc2NC(=O)Nc2ccc(Oc3ccnc(Nc4ccc(O)cc4C)n3)c3ccccc23)cc1 [Example 24, 1-(3-(tert-butyl)-1-(p-tolyl)-1H-pyrazol-5-yl)-3-(4-((2-((4-hydroxy-2-methylphenyl)amino)pyrimidin-4-yl)oxy)naphthalen-1-yl)urea] | −ve (−ve and +ve indicate the value is below and above respectively, the no significant effect threshold defined as 30% inhibition at 1 μg/mL at the time point indicated) | −ve (−ve and +ve indicate the value is below and above respectively, the no significant effect threshold defined as 30% inhibition at 1 μg/mL at the time point indicated)
COc1cc(Nc2nccc(Oc3ccc(NC(=O)Nc4cc(C(C)(C)C)nn4-c4ccc(C)cc4)c4ccccc34)n2)ccc1O [Example 25, 1-(3-(tert-butyl)-1-(p-tolyl)-1H-pyrazol-5-yl)-3-(4-((2-((4-hydroxy-3-methoxyphenyl)amino)pyrimidin-4-yl)oxy)naphthalen-1-yl)urea] | −ve (−ve and +ve indicate the value is below and above respectively, the no significant effect threshold defined as 30% inhibition at 1 μg/mL at the time point indicated) | −ve (−ve and +ve indicate the value is below and above respectively, the no significant effect threshold defined as 30% inhibition at 1 μg/mL at the time point indicated)
Cc1ccc(-n2nc(C(C)(C)C)cc2NC(=O)Nc2ccc(Oc3ccnc(Nc4ccc(C)c(O)c4)n3)c3ccccc23)cc1 [Example 26, 1-(3-(tert-butyl)-1-(p-tolyl)-1H-pyrazol-5-yl)-3-(4-((2-((3-hydroxy-4-methylphenyl)amino)pyrimidin-4-yl)oxy)naphthalen-1-yl)urea] | −ve (−ve and +ve indicate the value is below and above respectively, the no significant effect threshold defined as 30% inhibition at 1 μg/mL at the time point indicated) | −ve (−ve and +ve indicate the value is below and above respectively, the no significant effect threshold defined as 30% inhibition at 1 μg/mL at the time point indicated)
